These results are taken from ChEMBL document CHEMBL5465560, “Selectivity Literature for EUbOPEN Chemogenomic Library” (2024).

Test [1] concerns the target Casein kinase I isoform delta (Homo sapiens, UniProt P48730). Put plainly: Selectivity interaction (Ambit KINOMEscan and KiNATiv profiling in Jurkat cells) EUB0000090b CSNK1D. It is filed as cell-based. As to conditions: at 1 µM.
The target of test [2] is Proto-oncogene tyrosine-protein kinase ROS (Homo sapiens) (UniProt P08922). Put plainly: Selectivity interaction (KinomeScan (DiscoverX)) EUB0001049a ROS1. As to conditions: at 1 µM.
Sequence of Proto-oncogene tyrosine-protein kinase ROS (Homo sapiens) (P08922 whole entry): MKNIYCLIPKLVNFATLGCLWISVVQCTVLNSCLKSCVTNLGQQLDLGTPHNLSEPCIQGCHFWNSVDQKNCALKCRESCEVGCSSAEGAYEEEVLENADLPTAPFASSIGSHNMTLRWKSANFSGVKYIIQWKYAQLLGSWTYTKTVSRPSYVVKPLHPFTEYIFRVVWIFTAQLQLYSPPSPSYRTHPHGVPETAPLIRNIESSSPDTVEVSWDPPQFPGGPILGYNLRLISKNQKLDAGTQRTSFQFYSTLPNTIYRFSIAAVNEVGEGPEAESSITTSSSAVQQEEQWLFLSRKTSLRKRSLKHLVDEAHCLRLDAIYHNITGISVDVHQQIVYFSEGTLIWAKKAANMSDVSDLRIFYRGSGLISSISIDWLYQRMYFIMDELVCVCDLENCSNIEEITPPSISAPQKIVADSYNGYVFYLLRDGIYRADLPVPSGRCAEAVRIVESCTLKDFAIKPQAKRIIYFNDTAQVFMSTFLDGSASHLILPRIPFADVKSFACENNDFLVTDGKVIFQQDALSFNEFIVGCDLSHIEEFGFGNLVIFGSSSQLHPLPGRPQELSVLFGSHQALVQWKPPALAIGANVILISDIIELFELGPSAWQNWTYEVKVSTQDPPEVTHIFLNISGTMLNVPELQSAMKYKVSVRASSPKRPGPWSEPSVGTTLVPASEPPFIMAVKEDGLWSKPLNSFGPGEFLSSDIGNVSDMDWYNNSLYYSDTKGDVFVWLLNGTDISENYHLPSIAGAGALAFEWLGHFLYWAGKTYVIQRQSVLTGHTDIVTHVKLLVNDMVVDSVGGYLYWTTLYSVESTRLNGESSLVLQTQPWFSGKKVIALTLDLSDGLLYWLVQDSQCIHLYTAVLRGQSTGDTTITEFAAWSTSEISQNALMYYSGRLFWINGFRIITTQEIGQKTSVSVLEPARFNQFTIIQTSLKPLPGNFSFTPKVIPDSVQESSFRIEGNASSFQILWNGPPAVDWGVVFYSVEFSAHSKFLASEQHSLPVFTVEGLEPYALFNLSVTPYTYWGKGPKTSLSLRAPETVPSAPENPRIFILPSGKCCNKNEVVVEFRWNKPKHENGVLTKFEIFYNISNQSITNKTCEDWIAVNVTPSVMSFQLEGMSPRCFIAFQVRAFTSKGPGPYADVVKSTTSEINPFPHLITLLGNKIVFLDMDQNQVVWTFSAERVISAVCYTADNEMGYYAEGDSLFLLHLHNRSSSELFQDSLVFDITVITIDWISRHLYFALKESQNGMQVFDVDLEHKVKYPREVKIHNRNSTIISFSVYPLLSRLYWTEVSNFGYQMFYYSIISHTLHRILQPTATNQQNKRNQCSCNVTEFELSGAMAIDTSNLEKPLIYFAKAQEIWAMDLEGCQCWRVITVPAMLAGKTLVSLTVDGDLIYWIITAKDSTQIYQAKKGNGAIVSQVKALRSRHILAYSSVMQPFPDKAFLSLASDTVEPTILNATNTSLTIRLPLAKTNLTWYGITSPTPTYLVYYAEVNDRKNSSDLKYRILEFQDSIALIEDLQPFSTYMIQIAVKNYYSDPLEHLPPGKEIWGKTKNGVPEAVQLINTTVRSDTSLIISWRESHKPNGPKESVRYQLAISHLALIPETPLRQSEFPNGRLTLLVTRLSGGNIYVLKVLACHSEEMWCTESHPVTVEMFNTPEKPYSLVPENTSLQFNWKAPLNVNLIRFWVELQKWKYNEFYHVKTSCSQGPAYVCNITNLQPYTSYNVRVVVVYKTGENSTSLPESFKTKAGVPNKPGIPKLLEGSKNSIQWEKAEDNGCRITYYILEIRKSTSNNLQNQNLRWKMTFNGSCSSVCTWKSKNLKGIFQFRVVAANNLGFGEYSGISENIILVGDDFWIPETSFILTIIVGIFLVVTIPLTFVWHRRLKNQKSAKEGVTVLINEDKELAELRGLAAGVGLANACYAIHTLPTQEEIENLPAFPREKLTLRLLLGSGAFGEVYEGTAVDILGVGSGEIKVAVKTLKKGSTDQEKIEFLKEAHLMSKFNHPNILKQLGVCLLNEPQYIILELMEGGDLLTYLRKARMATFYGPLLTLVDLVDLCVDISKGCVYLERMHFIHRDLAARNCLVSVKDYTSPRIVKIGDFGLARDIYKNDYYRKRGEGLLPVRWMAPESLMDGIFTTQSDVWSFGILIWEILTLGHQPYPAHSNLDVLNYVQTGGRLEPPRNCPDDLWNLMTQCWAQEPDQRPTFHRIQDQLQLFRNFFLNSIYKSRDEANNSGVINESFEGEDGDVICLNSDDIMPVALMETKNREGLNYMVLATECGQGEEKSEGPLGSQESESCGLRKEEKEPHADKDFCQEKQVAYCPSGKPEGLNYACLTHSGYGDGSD
For test [3], the target named is T1, Bromodomain-containing protein 1 (Homo sapiens) (UniProt O95696).
T1 sequence (whole entry): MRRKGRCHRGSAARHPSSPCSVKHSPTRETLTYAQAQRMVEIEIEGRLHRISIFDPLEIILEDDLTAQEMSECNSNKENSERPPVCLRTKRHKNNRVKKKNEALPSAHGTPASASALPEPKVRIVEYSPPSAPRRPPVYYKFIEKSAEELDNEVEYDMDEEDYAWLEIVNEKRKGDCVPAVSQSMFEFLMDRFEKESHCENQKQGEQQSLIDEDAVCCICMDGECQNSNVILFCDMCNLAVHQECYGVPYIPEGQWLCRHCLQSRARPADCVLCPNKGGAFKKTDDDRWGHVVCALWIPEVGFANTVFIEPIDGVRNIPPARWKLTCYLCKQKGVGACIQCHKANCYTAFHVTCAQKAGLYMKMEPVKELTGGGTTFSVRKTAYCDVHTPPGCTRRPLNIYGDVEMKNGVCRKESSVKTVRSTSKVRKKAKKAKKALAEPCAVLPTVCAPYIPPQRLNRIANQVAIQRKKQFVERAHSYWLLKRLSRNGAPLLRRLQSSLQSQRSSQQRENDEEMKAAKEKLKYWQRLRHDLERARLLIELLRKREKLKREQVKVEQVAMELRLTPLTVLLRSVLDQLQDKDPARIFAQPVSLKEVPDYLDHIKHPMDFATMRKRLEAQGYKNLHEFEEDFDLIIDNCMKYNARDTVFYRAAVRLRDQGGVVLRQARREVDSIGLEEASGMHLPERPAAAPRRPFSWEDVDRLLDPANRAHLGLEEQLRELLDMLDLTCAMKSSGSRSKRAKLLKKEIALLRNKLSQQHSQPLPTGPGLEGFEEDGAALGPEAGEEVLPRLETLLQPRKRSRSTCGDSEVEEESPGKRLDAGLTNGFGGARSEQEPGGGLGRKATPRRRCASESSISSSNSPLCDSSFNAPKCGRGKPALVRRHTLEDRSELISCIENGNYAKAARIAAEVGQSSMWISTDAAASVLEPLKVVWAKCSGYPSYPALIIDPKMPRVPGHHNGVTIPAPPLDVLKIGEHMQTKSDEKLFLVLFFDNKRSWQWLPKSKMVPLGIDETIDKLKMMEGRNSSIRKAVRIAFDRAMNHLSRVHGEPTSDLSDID
Nature of the test: Selectivity interaction (Bromodomain panel (DSF asssay)) EUB0000270b BRD1.

For test [4], the target named is DNA (cytosine-5)-methyltransferase 3A (Homo sapiens) (UniProt Q9Y6K1). Nature of the test: Selectivity interaction (PWWP, WD40, and Tudor domain panel (DSLS measurements, literature)) EUB0000270b DNMT3A.
Sequence of DNA (cytosine-5)-methyltransferase 3A (Homo sapiens) (Q9Y6K1 whole entry, looked up, the tested form may be a part): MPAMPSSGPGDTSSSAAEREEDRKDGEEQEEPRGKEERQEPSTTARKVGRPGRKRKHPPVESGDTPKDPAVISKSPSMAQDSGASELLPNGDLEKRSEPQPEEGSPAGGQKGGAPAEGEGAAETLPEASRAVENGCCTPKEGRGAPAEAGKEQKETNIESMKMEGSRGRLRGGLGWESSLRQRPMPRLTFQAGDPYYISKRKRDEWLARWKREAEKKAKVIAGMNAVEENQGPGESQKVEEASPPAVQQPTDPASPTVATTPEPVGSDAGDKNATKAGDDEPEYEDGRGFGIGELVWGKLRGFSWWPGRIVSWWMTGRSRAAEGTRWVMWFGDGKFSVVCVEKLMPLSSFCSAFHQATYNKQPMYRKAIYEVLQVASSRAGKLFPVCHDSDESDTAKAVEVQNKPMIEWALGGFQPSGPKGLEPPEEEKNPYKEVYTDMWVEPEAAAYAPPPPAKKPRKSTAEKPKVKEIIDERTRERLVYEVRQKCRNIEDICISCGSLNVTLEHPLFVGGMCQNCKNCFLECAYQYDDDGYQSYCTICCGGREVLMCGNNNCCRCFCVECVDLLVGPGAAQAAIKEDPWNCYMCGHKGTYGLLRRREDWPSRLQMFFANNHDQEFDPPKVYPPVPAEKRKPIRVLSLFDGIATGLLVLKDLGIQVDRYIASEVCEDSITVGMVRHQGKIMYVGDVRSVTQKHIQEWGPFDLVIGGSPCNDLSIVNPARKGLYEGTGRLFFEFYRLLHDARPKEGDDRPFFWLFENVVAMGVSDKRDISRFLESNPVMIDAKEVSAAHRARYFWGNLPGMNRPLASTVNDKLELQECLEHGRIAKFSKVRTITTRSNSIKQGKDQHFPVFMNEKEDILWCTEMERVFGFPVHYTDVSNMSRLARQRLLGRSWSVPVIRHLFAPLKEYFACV
Test [5] addresses Serine/threonine-protein kinase 24 (Homo sapiens) (UniProt Q9Y6E0). Put plainly: Selectivity interaction (KinomeScan (DiscoverX)) EUB0000607a STK24. As to conditions: at 10 µM.
The target in test [6] is T2, Serine/threonine-protein kinase D1 (Homo sapiens) (UniProt Q15139).
T2 sequence (whole entry): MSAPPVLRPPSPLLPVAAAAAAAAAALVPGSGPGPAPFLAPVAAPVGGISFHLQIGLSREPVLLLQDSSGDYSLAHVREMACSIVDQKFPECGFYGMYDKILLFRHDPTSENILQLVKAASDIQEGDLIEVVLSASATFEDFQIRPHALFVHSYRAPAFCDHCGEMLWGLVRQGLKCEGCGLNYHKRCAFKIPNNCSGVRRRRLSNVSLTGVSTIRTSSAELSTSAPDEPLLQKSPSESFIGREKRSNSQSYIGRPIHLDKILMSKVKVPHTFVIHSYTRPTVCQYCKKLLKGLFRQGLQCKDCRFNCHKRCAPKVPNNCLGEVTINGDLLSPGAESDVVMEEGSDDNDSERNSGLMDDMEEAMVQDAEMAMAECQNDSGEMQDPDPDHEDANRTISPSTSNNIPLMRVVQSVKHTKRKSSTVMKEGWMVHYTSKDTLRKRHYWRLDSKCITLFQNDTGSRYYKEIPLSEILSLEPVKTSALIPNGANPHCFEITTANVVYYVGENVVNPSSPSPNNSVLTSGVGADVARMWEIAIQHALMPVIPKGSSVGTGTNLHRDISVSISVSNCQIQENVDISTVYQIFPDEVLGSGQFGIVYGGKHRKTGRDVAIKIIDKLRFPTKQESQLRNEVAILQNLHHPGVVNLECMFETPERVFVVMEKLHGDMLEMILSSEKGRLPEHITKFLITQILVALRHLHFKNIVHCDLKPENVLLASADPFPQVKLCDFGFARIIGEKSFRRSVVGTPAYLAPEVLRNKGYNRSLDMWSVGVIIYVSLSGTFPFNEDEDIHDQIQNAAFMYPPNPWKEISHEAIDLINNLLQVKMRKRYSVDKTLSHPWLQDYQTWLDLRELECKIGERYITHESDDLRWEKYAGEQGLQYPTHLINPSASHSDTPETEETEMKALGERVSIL
Nature of the test: Selectivity interaction (Kinase panel (Invitrogen)) EUB0000639a PRKD1. As to conditions: at 200 nM.

Test [7] has as its target Serine/threonine-protein kinase 24 (Homo sapiens) (UniProt Q9Y6E0). Put plainly: Selectivity interaction (KinomeScan (DiscoverX)) EUB0000595a STK24. The conditions noted are these: at 10 µM.
For test [8], the target named is T3, 3-phosphoinositide-dependent protein kinase 1 (Homo sapiens) (UniProt O15530).
T3 sequence (whole entry): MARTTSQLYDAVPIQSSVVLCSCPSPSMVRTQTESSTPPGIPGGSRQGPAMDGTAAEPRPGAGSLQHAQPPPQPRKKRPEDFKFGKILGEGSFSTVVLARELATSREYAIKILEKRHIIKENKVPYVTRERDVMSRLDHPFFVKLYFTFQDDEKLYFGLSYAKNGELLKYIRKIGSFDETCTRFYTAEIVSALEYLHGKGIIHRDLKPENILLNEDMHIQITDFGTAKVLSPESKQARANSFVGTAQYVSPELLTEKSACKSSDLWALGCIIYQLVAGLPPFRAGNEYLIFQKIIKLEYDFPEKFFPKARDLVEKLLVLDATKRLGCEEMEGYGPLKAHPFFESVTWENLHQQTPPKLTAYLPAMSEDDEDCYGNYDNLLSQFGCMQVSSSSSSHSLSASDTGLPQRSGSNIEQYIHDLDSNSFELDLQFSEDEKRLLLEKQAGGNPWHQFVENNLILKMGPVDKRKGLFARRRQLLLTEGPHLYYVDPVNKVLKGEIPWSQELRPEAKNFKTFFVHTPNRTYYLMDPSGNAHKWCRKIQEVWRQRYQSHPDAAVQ
The conditions noted are these: at 10 µM.

Sequence of Serine/threonine-protein kinase 24 (Homo sapiens) (Q9Y6E0 whole entry, looked up): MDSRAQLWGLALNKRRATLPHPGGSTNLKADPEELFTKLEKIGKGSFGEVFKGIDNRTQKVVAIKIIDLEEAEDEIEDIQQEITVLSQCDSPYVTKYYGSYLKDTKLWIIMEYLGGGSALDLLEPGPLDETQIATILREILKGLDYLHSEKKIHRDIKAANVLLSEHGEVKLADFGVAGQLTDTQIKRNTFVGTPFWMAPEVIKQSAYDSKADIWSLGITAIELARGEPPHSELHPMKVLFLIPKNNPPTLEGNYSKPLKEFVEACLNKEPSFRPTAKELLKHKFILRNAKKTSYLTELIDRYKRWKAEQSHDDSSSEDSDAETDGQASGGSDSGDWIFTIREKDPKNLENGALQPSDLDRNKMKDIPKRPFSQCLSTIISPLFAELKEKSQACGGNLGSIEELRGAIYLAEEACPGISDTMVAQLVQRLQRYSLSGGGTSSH
Sequence of Casein kinase I isoform delta (P48730 whole entry, looked up, canonical isoform): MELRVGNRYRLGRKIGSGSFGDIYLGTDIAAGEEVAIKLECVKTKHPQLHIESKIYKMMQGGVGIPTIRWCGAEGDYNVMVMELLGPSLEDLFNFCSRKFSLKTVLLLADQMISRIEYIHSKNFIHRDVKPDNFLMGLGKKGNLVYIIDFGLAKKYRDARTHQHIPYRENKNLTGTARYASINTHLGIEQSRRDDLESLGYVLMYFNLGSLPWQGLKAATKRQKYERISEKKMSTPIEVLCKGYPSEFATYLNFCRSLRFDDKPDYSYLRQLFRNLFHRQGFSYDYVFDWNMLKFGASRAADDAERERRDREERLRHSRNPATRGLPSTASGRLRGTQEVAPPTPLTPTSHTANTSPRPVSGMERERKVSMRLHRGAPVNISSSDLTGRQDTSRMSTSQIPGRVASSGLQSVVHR

As to `CN(C)C/C=C/C(=O)Nc1ccc(C(=O)N2CCCC(Nc3ncc(Cl)c(-c4c[nH]c5ccccc45)n3)C2)cc1` (stereo not drawn), the % of control in test [1] stood at 80%.

For the compound `COc1cc(Nc2nc(C)cc(-c3cnn4nc(OC)ccc34)n2)cc(C(F)(F)F)c1`, in test [2], the % of control came to 91%.

`Cc1cc(CN)cc(C)c1-c1ncn(C)c1-c1cncn1C` registered a dTM in test [3] of -2.24 K. The compound also returned a dTagg in test [4] of -0.1 K.

`CNC(=O)Nc1ccc(-c2nc(N3CC4CCC(C3)O4)c3cnn(C4CCC5(CC4)OCCO5)c3n2)cc1` showed a % of control in test [5] of 96%.

`CC[C@@H]1[C@H](F)C(=O)N[C@@H]1COc1nccc2cc(C(N)=O)c(OC)cc12` [ZIMLOVISERTIB]: the % of inhibition in test [6] is 5.76%.

Consider `COCC(=O)NC/C=C/c1ccc2ncnc(Nc3ccc(Oc4ccc(C)nc4)c(C)c3)c2c1` [CP-724714], for which the figures for the % of control in test [7] and in test [8] were 90% and 100%, respectively.
